# Measured values from PubChem BioAssay (NCI).
#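 Assay format: 96-well plates, 48-hour exposure. GI50 is the concentration that inhibits growth by half. At the TGI there is no net growth.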
# Experiments:
# Assay in all cases: NCI tumour cell line growth inhibition, 48 h
# 786-0 renal = test system: 786-0 renal
# A498 renal = test system: A498 renal
# A549 NSCLC = test system: A549 NSCLC
# ACHN renal = test system: ACHN renal
# BT-549 breast = test system: BT-549 breast
# CAKI-1 renal = test system: CAKI-1 renal
# CCRF-CEM leukemia = test system: CCRF-CEM leukemia
# COLO 205 colon = test system: COLO 205 colon
# DU-145 prostate = test system: DU-145 prostate
# EKVX NSCLC = test system: EKVX NSCLC
# HCC-2998 colon = test system: HCC-2998 colon
# HCT-116 colon = test system: HCT-116 colon
# HCT-15 colon = test system: HCT-15 colon
# HL-60(TB) leukemia = test system: HL-60(TB) leukemia
# HOP-62 NSCLC = test system: HOP-62 NSCLC
# HOP-92 NSCLC = test system: HOP-92 NSCLC
# HS 578T breast = test system: HS 578T breast
# HT29 colon = test system: HT29 colon
# IGROV1 ovarian = test system: IGROV1 ovarian
# KM12 colon = test system: KM12 colon
# LOX IMVI melanoma = test system: LOX IMVI melanoma
# M14 melanoma = test system: M14 melanoma
# MALME-3M melanoma = test system: MALME-3M melanoma
# MCF7 breast = test system: MCF7 breast
# MDA-MB-231 breast = test system: MDA-MB-231 breast
# MDA-MB-435 = test system: MDA-MB-435
# MDA-MB-468 breast = test system: MDA-MB-468 breast
# MOLT-4 leukemia = test system: MOLT-4 leukemia
# NCI-H226 lung = test system: NCI-H226 lung
# NCI-H23 lung = test system: NCI-H23 lung
# NCI-H460 lung = test system: NCI-H460 lung
# NCI-H522 lung = test system: NCI-H522 lung
# OVCAR-3 ovarian = test system: OVCAR-3 ovarian
# OVCAR-4 ovarian = test system: OVCAR-4 ovarian
# OVCAR-5 ovarian = test system: OVCAR-5 ovarian
# OVCAR-8 ovarian = test system: OVCAR-8 ovarian
# PC-3 prostate = test system: PC-3 prostate
# RPMI-8226 leukemia = test system: RPMI-8226 leukemia
# RXF 393 renal = test system: RXF 393 renal
# SF-268 CNS = test system: SF-268 CNS
# SF-295 CNS = test system: SF-295 CNS
# SF-539 CNS = test system: SF-539 CNS
# SK-MEL-2 melanoma = test system: SK-MEL-2 melanoma
# SK-MEL-28 melanoma = test system: SK-MEL-28 melanoma
# SK-MEL-5 melanoma = test system: SK-MEL-5 melanoma
# SK-OV-3 ovarian = test system: SK-OV-3 ovarian
# SN12C renal = test system: SN12C renal
# SNB-19 CNS = test system: SNB-19 CNS
# SNB-75 CNS = test system: SNB-75 CNS
# SR leukemia = test system: SR leukemia
# SW-620 colon = test system: SW-620 colon
# T-47D breast = test system: T-47D breast
# TK-10 renal = test system: TK-10 renal
# U251 CNS = test system: U251 CNS
# UACC-257 melanoma = test system: UACC-257 melanoma
# UACC-62 melanoma = test system: UACC-62 melanoma
# UO-31 renal = test system: UO-31 renal
smiles,measurement,setting,value
CN1CCc2c(sc3ncnc(N/N=C/c4ccc(Cl)cc4Cl)c23)C1,GI50,786-0 renal,1.77 µM
same,TGI,786-0 renal,3.26 µM
same,GI50,A498 renal,3.22 µM
same,TGI,A498 renal,12.3 µM
same,GI50,A549 NSCLC,3.73 µM
same,TGI,A549 NSCLC,16.9 µM
same,GI50,ACHN renal,1.88 µM
same,TGI,ACHN renal,3.97 µM
same,GI50,BT-549 breast,3.97 µM
same,TGI,BT-549 breast,16 µM
same,GI50,CAKI-1 renal,1.8 µM
same,TGI,CAKI-1 renal,3.87 µM
same,GI50,CCRF-CEM leukemia,2.45 µM
same,TGI,CCRF-CEM leukemia,12.2 µM
same,GI50,COLO 205 colon,1.66 µM
same,TGI,COLO 205 colon,3.41 µM
same,GI50,DU-145 prostate,6.47 µM
same,TGI,DU-145 prostate,> 100 µM
same,GI50,EKVX NSCLC,10.8 µM
same,TGI,EKVX NSCLC,> 100 µM
same,GI50,HCC-2998 colon,3.69 µM
same,TGI,HCC-2998 colon,15.3 µM
same,GI50,HCT-116 colon,3.04 µM
same,TGI,HCT-116 colon,11.4 µM
same,GI50,HCT-15 colon,2.95 µM
same,TGI,HCT-15 colon,13.7 µM
same,GI50,HL-60(TB) leukemia,2.12 µM
same,TGI,HL-60(TB) leukemia,6.11 µM
same,GI50,HOP-62 NSCLC,3.34 µM
same,TGI,HOP-62 NSCLC,16.9 µM
same,GI50,HOP-92 NSCLC,1.95 µM
same,TGI,HOP-92 NSCLC,5.96 µM
same,GI50,HS 578T breast,3.18 µM
same,TGI,HS 578T breast,27.3 µM
same,GI50,HT29 colon,2.13 µM
same,TGI,HT29 colon,4.91 µM
same,GI50,IGROV1 ovarian,6.89 µM
same,TGI,IGROV1 ovarian,> 100 µM
same,GI50,KM12 colon,4.3 µM
same,TGI,KM12 colon,25.7 µM
same,GI50,LOX IMVI melanoma,1.49 µM
same,TGI,LOX IMVI melanoma,2.93 µM
same,GI50,M14 melanoma,1.71 µM
same,TGI,M14 melanoma,3.45 µM
same,GI50,MALME-3M melanoma,1.9 µM
same,TGI,MALME-3M melanoma,3.94 µM
same,GI50,MCF7 breast,2.36 µM
same,TGI,MCF7 breast,14.7 µM
same,GI50,MDA-MB-231 breast,1.93 µM
same,TGI,MDA-MB-231 breast,4.71 µM
same,GI50,MDA-MB-435,2.11 µM
same,TGI,MDA-MB-435,5.44 µM
same,GI50,MDA-MB-468 breast,1.52 µM
same,TGI,MDA-MB-468 breast,3.32 µM
same,GI50,MOLT-4 leukemia,2.9 µM
same,TGI,MOLT-4 leukemia,18.4 µM
same,GI50,NCI-H226 lung,2.11 µM
same,TGI,NCI-H226 lung,8.21 µM
same,GI50,NCI-H23 lung,2.81 µM
same,TGI,NCI-H23 lung,10.7 µM
same,GI50,NCI-H460 lung,3.2 µM
same,TGI,NCI-H460 lung,13.3 µM
same,GI50,NCI-H522 lung,3.38 µM
same,TGI,NCI-H522 lung,13.3 µM
same,GI50,OVCAR-3 ovarian,1.34 µM
same,TGI,OVCAR-3 ovarian,2.88 µM
same,GI50,OVCAR-4 ovarian,1.79 µM
same,TGI,OVCAR-4 ovarian,3.81 µM
same,GI50,OVCAR-5 ovarian,2.84 µM
same,TGI,OVCAR-5 ovarian,11.2 µM
same,GI50,OVCAR-8 ovarian,2.38 µM
same,TGI,OVCAR-8 ovarian,7.62 µM
same,GI50,PC-3 prostate,3.96 µM
same,TGI,PC-3 prostate,> 100 µM
same,GI50,RPMI-8226 leukemia,2.51 µM
same,TGI,RPMI-8226 leukemia,11.8 µM
same,GI50,RXF 393 renal,2.1 µM
same,TGI,RXF 393 renal,4.95 µM
same,GI50,SF-268 CNS,4.64 µM
same,TGI,SF-268 CNS,> 100 µM
same,GI50,SF-295 CNS,2.3 µM
same,TGI,SF-295 CNS,8.18 µM
same,GI50,SF-539 CNS,1.81 µM
same,TGI,SF-539 CNS,3.28 µM
same,GI50,SK-MEL-2 melanoma,3.59 µM
same,TGI,SK-MEL-2 melanoma,13.9 µM
same,GI50,SK-MEL-28 melanoma,2.04 µM
same,TGI,SK-MEL-28 melanoma,5.37 µM
same,GI50,SK-MEL-5 melanoma,1.66 µM
same,TGI,SK-MEL-5 melanoma,3.72 µM
same,GI50,SK-OV-3 ovarian,3.04 µM
same,TGI,SK-OV-3 ovarian,12.5 µM
same,GI50,SN12C renal,2.43 µM
same,TGI,SN12C renal,6.7 µM
same,GI50,SNB-19 CNS,4.01 µM
same,TGI,SNB-19 CNS,> 100 µM
same,GI50,SNB-75 CNS,1.54 µM
same,TGI,SNB-75 CNS,4.2 µM
same,GI50,SR leukemia,2.27 µM
same,TGI,SR leukemia,9.19 µM
same,GI50,SW-620 colon,1.91 µM
same,TGI,SW-620 colon,4.34 µM
same,GI50,T-47D breast,2.1 µM
same,TGI,T-47D breast,6.59 µM
same,GI50,TK-10 renal,2.53 µM
same,TGI,TK-10 renal,6.36 µM
same,GI50,U251 CNS,1.92 µM
same,TGI,U251 CNS,4.31 µM
same,GI50,UACC-257 melanoma,2.86 µM
same,TGI,UACC-257 melanoma,9.96 µM
same,GI50,UACC-62 melanoma,1.7 µM
same,TGI,UACC-62 melanoma,3.67 µM
same,GI50,UO-31 renal,1.47 µM
same,TGI,UO-31 renal,2.83 µM
